Source: paper PMC5729429, “Gimatecan exerts potent antitumor activity against gastric cancer in vitro and in vivo via AKT and MAPK signaling pathways” (Journal of Translational Medicine, 2017)

Assays:
MGC803 cells = assay: Cell viability assay (CCK-8), MGC803; type: cell-based; settings: Homo sapiens, MGC-803, Fig. S1B 48 h exposure, 0–1 µM, read-out: IC50 antiproliferative effect
Description: Human GC cell lines SNU-1, HGC27 and MGC803 were purchased from Peking Union Medical College, and the NCI-N87 cell line was a gift from You-yong Lv, Ph.D. (Peking University Cancer Hospital and Institute). Cells were cultured in RPMI 1640 medium and Dulbecco’s Modified Eagle Medium (Gibco-BRL, MD, USA), respectively, supplemented with 10% fetal bovine serum (Gibco-BRL), 100 U/ml penicillin (Gibco-BRL) and […] streptomycin (Gibco-BRL). Cells were incubated in a humidified incubator (37 °C) supplemented with 5% CO2.
[…] Cell viability was measured using a Cell Counting Kit-8 (Dojindo, Kumamoto, Japan) according to the manufacturer’s instructions. Absorbance at 450 nm was measured using a microplate spectrophotometer. All experiments were repeated at least three times.

HGC27 cells = assay: Annexin V-PE/7-AAD apoptosis assay (flow cytometry), HGC27; type: cell-based, human; settings: 1000 nM, 24 h
Description: Apoptosis was measured by staining with phycoerythrin (PE)-annexin V and 7-amino-actinomycin (7-AAD) (BD Biosciences, Erembodegem, Belgium) for 15 min at room temperature in the dark, followed by flow cytometry (BD Biosciences) within 1 h. Apoptosis was analyzed with FlowJo 7.6 software (FlowJo, LLC, Ashland, Oregon).
Supplementary file 12967_2017_1360_MOESM2_ESM.pdf: Additional file 2: Figure S2. Gimatecan induces apoptosis in HGC27 cell line. (A) Compared with irinotecan, gimatecan induced higher cell apoptosis in HGC27 cell. Cells were treated with gimatecan (0–1 µM) and irinotecan (0–1 µM) for 24 h and stained with Annexin V-PE/7-AAD. Sums of percentages of early apoptosis (Q3) and late apoptosis (Q2) were calculated as the total apoptosis ratios. (B) Pro- and anti-apoptotic proteins including Bcl-2, Bak, PARP and cleaved PARP were assessed by western-blotting in HGC27 cell. Western-blotting bands were quantified and normalized by ImageJ. All data are means ± SD of three independent experiments. *Compared with controls, p < 0.05; ns, p > 0.05.

In the case of CC[C@@]1(O)C(=O)OCc2c1cc1n(c2=O)Cc2c-1nc1ccccc1c2/C=N/OC(C)(C)C [Gimatecan, 7-t-butoxyiminomethylcamptothecin], the IC50 (MGC803 cells) is reported as 3.29 nM and the “proportion of apoptotic cells” value (HGC27 cells) is reported as 14.27 ± 1.69%.
